Assay results reported in PMC4028107, “Adenosine deaminase activity modulation by some street drug: molecular docking simulation and experimental investigation” (DARU Journal of Pharmaceutical Sciences, 2014).

Legend:
adenosine deaminase [1] = target: T1, adenosine deaminase (Bos taurus, UniProt P56658); experiment: Fluorescence spectroscopy of ADA (Trp emission); type: binding, bovine; conditions: excitation 290 nm, emission 300-400 nm, pH 7.4, enzyme 6 μM, compounds 1.7 to 73.4 μM
T1 construct: Adenosine deaminase (EC 3.5.4.4) extracted from bovine spleen; purchased sigma; host or cells: bovine spleen (tissue extract)
T1 sequence (P56658 1-363): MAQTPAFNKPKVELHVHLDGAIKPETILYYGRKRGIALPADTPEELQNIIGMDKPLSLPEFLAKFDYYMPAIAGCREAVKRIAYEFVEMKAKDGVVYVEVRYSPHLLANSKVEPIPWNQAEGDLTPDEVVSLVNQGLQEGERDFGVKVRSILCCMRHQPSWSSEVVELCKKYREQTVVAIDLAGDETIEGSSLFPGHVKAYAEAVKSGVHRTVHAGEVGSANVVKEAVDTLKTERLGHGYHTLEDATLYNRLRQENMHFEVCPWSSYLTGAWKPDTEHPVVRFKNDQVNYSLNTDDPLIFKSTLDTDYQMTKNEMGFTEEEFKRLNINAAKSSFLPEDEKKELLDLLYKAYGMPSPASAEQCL
Experimental: Fluorescence spectroscopy was performed on a Hitachi fluorescence spectrophotometer model MPF-4 with 1 cm path length fluorescence cuvette and final volume of 400 μL. The excitation wavelength was adjusted in 290 nm, and the emission was scanned every 1 nm in the range of 300 to 400 nm.

adenosine deaminase [2] = target: T1, adenosine deaminase; experiment: Circular dichroism spectroscopy of ADA; set-up: species or system bovine; conditions: far-UV 200–260 nm, pH 7.4; cocaine concentration around 180 μM
Experimental: CD spectra were measured in the far-UV (200–260 nm) region with JASCO J-715 spectropolarimeter (Japan). JASCO J-715 software not only gave us the possibility of data smoothing, but also used to predict the secondary structure changes of the protein according to the statistical method. Each scan was recorded in 1 nm increments at 37°C, repeated three times, and averaged. The protein was in 0.1 M PBS buffer, pH = 7.4, and its concentration was adjusted to 2 mg/ml in 1 cm path length cuvette. The results were expressed in molar ellipticity [θ] (deg cm^2.dmol^−1).

[3] = target: T2, Adenosine deaminase (EC 3.5.4.4) extracted from bovine spleen (Bos taurus, UniProt P56658); experiment: biochemical; type: biochemical; conditions: for IC50: 2 mg/ml adenosine deaminase enzyme, 37°C, 30 min incubation, PBS pH 7.4, compounds 5–300 μM
T2 construct: Adenosine deaminase (EC 3.5.4.4) extracted from bovine spleen; purchased sigma; host or cells: bovine spleen (tissue extract)
T2 sequence (P56658 1-363): T1 sequence (P56658 1-363)
Experimental: Adenosine deaminase (EC 3.5.4.4) extracted from bovine spleen was purchased from sigma, and all other used materials were of analytical grade and acquired from Merck. PBS that is used in assay was adjusted at 7.4, at which, enzyme has optimal activity in [38, 39]. All solutions were prepared in MilliQ (Millipore, USA) water.
Released ammonia resulted by enzyme activity was determined by specific Berthelot colorimetric method which was used for micro determination of ADA activity in serum. […] In this process sodium nitroprusside is used as the catalyst. The reaction was initiated by addition of adenosine as a substrate at 37°C to preincubated enzyme with different concentrations of tested compounds at different concentrations (5–300 μM). Finally, the enzymatic reaction was stopped at the end of 30 minutes of incubation by adding phenol nitroprusside solution. The mixture kept again for 30 minutes at 37°C before absorbance determination.
Obtained absorbance was normalized through blank sample, and IC50 values were calculated by Prism software (Ver. 5, GraphPad Software Inc., San Diego CA,).

Structure (SMILES) | change in fluorescence spectra of ADA (adenosine deaminase [1]) | change in CD spectra of ADA (adenosine deaminase [2]) | IC50 [3] [µM] | concentration up to which ADA was activated [3] [µM]
COC(=O)[C@H]1[C@@H](OC(=O)c2ccccc2)C[C@@H]2CC[C@H]1N2C [Cocaine] | bathochromic shift | drastic changes | 180 | –
COC1=CC=C2[C@H]3Cc4ccc(OC)c5c4[C@@]2(CCN3C)[C@H]1O5 [Thebaine] | do not show noticeable change and shift | – | 163 | 50
CCOc1ccc2c3c1O[C@H]1[C@@H](O)C=C[C@H]4[C@@H](C2)N(C)CC[C@@]341 [Ethylmorphine] | do not show noticeable change and shift | – | 35 | –
